{"source": "patent US5089623A", "about": "“Certain imidate insecticides” (Imperial Chemical Industries Plc, priority 1990, dated 1992)", "format_in_all_cases": "in vivo", "key": {"[1]": {"system": "Tobacco Budworm [Heliothis virescens (Fabricius)] eggs", "assay": "Tobacco budworm egg test (TBW-E)", "settings": "percent in solution"}, "[2]": {"system": "Tobacco Budworm [Heliothis virescens (Fabricius)]", "assay": "Tobacco budworm contact test (TBW-C)", "settings": "second-instar larvae, 5 days, percent in solution", "description": "The compounds in Tables 1 and 2 above were tested for insecticidal activity using the following testing procedures. LC50 values, based on the results of these tests and calculated according to dosage-mortality curves, are expressed in Table 3.\nTobacco Budworm [Heliothis virescens (Fabricius)]\n(a) Contact: Test compounds were diluted in a 50-50 acetonewater solution. Cotton (Gossypium sp.) cotyledons were immersed in the test solutions for 2-3 seconds and placed on a wire screen to dry. The dried leaves were placed in petri dishes containing a moistened piece of filter paper and infested with 5 second-instar tobacco budworm larvae. The dishes were placed in a high humidity chamber for 5 days, and percent mortality of the larvae recorded. Test concentrations ranged from 0.1% downward. The LC-50 values are expressed below in Table 3 under the heading \"TBW-C\" in terms of percent of the test compound in the solution."}, "[3]": {"system": "Housefly [Musca domestica]", "assay": "Housefly insecticidal test (HF)", "settings": "per 25 female houseflies, 48 hours"}, "[4]": {"system": "Cabbage Looper [Trichoplusia ni (Hubner)]", "assay": "Cabbage looper test (CL)", "settings": "second-instar larvae, 3-5 days, percent in solution"}, "[5]": {"system": "Maize weevil [Sitophilus Zeamais (Motschulsky)]", "assay": "Maize weevil test (MW)", "settings": "adult weevils, treated corn seeds, 48 hours, percent in solution", "outline": "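Adult weevils (10) were placed with four corn seeds that had been dipped 2-3 s in compound dissolved in 50:50 acetone:water, then dried, and held at about 25° C. Mortality was scored at 48 h. LC50 was taken from dosage-mortality curves and expressed as percent compound in solution, from a 0.01% top concentration.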"}}, "data": [{"compound": "CC(=O)c1ccc(N=C(OCc2cccc(Oc3ccccc3)c2)C(C)C)cc1", "note": "[Compound 147]", "values": [{"measurement": "LC50 TBW E", "setting": "[1]", "value": "> 0.1", "unit": "%"}, {"measurement": "LC50 TBW C", "setting": "[2]", "value": 0.0075, "unit": "%"}, {"measurement": "LC50 HF", "setting": "[3]", "value": 10, "unit": "µg"}, {"measurement": "LC50 CL", "setting": "[4]", "value": 0.01, "unit": "%"}]}, {"compound": "COc1ccc(N=C(OCc2cccc(Oc3ccccc3)c2)C(C)C)c(OC)c1", "note": "[Compound 146]", "values": [{"measurement": "LC50 TBW E", "setting": "[1]", "value": "> 0.1", "unit": "%"}, {"measurement": "LC50 TBW C", "setting": "[2]", "value": 0.025, "unit": "%"}, {"measurement": "LC50 HF", "setting": "[3]", "value": 40, "unit": "µg"}, {"measurement": "LC50 CL", "setting": "[4]", "value": 0.017, "unit": "%"}]}, {"compound": "Cc1cc(Cl)ccc1N=C(OCc1cccc(Oc2ccccc2)c1)C(C)C", "note": "[Compound 96]", "values": [{"measurement": "LC50 TBW E", "setting": "[1]", "value": 0.025, "unit": "%"}, {"measurement": "LC50 TBW C", "setting": "[2]", "value": 0.0025, "unit": "%"}, {"measurement": "LC50 HF", "setting": "[3]", "value": 35, "unit": "µg"}, {"measurement": "LC50 CL", "setting": "[4]", "value": 0.003, "unit": "%"}]}, {"compound": "CC(C)(C)C(=Nc1ccc(F)c(Cl)c1)OCc1cccc(Oc2ccc(F)cc2)c1", "note": "[Compound 204]", "values": [{"measurement": "LC50 TBW E", "setting": "[1]", "value": "> 0.1", "unit": "%"}, {"measurement": "LC50 TBW C", "setting": "[2]", "value": 0.004, "unit": "%"}, {"measurement": "LC50 HF", "setting": "[3]", "value": "> 100", "unit": "µg"}, {"measurement": "LC50 CL", "setting": "[4]", "value": 0.0023, "unit": "%"}, {"measurement": "LC50 MW", "setting": "[5]", "value": "> 0.01", "unit": "%"}]}, {"compound": "C=C(C)C(=Nc1ccc(C(F)(F)F)cc1)OCc1ccc(F)c(Oc2ccc(Cl)cc2)c1", "note": "[Compound 432]", "values": [{"measurement": "LC50 TBW E", "setting": "[1]", "value": 0.032, "unit": "%"}, {"measurement": "LC50 TBW C", "setting": "[2]", "value": "< 0.1", "unit": "%"}, {"measurement": "LC50 HF", "setting": "[3]", "value": "< 100", "unit": "µg"}, {"measurement": "LC50 CL", "setting": "[4]", "value": 0.0012, "unit": "%"}, {"measurement": "LC50 MW", "setting": "[5]", "value": "> 0.01", "unit": "%"}]}, {"compound": "Cc1ccc(F)cc1N=C(OCc1cccc(Oc2ccccc2)c1)C(C)C", "note": "[Compound 74]", "values": [{"measurement": "LC50 TBW E", "setting": "[1]", "value": 0.025, "unit": "%"}, {"measurement": "LC50 TBW C", "setting": "[2]", "value": 0.0025, "unit": "%"}, {"measurement": "LC50 HF", "setting": "[3]", "value": 25, "unit": "µg"}, {"measurement": "LC50 CL", "setting": "[4]", "value": 0.005, "unit": "%"}]}, {"compound": "CC(C)C(=Nc1cccc(C(F)(F)F)c1)OCc1ccc(F)c(Oc2ccc(Cl)cc2)c1", "note": "[Compound 266]", "values": [{"measurement": "LC50 TBW E", "setting": "[1]", "value": 0.06, "unit": "%"}, {"measurement": "LC50 TBW C", "setting": "[2]", "value": 0.0007, "unit": "%"}, {"measurement": "LC50 HF", "setting": "[3]", "value": 10, "unit": "µg"}, {"measurement": "LC50 CL", "setting": "[4]", "value": 0.00016, "unit": "%"}]}, {"compound": "CCC(C)C(=Nc1ccc(F)c(Cl)c1)OCc1cccc(Oc2ccc(F)cc2)c1", "note": "(centres unmarked) [Compound 210]", "values": [{"measurement": "LC50 TBW E", "setting": "[1]", "value": 0.045, "unit": "%"}, {"measurement": "LC50 TBW C", "setting": "[2]", "value": 0.0015, "unit": "%"}, {"measurement": "LC50 HF", "setting": "[3]", "value": 35, "unit": "µg"}, {"measurement": "LC50 CL", "setting": "[4]", "value": 0.00028, "unit": "%"}, {"measurement": "LC50 MW", "setting": "[5]", "value": "> 0.01", "unit": "%"}]}, {"compound": "CC(C)C(=Nc1cc(F)cc(F)c1)OCc1cccc(Oc2ccc(F)cc2)c1", "note": "[Compound 199]", "values": [{"measurement": "LC50 TBW E", "setting": "[1]", "value": "> 0.1", "unit": "%"}, {"measurement": "LC50 TBW C", "setting": "[2]", "value": 0.003, "unit": "%"}, {"measurement": "LC50 HF", "setting": "[3]", "value": 8, "unit": "µg"}, {"measurement": "LC50 CL", "setting": "[4]", "value": 0.0006, "unit": "%"}, {"measurement": "LC50 MW", "setting": "[5]", "value": "> 0.01", "unit": "%"}]}, {"compound": "Cc1c(F)cccc1N=C(OCc1cccc(Oc2ccccc2)c1)C(C)C", "note": "[Compound 73]", "values": [{"measurement": "LC50 TBW E", "setting": "[1]", "value": 0.025, "unit": "%"}, {"measurement": "LC50 TBW C", "setting": "[2]", "value": 0.005, "unit": "%"}, {"measurement": "LC50 HF", "setting": "[3]", "value": 25, "unit": "µg"}, {"measurement": "LC50 CL", "setting": "[4]", "value": 0.004, "unit": "%"}]}, {"compound": "ClC(Cl)C(=Nc1ccccc1)OCc1cccc(Oc2ccccc2)c1", "note": "[Compound 41]", "values": [{"measurement": "LC50 TBW E", "setting": "[1]", "value": 0.04, "unit": "%"}, {"measurement": "LC50 TBW C", "setting": "[2]", "value": 0.0035, "unit": "%"}, {"measurement": "LC50 HF", "setting": "[3]", "value": 4.5, "unit": "µg"}, {"measurement": "LC50 CL", "setting": "[4]", "value": 0.015, "unit": "%"}]}, {"compound": "COc1ccc(N=C(OCc2cccc(Oc3ccccc3)c2)C(C)C)cc1Cl", "note": "[Compound 95]", "values": [{"measurement": "LC50 TBW E", "setting": "[1]", "value": 0.025, "unit": "%"}, {"measurement": "LC50 TBW C", "setting": "[2]", "value": 0.004, "unit": "%"}, {"measurement": "LC50 HF", "setting": "[3]", "value": 10, "unit": "µg"}, {"measurement": "LC50 CL", "setting": "[4]", "value": 0.0025, "unit": "%"}]}, {"compound": "CC(C)(C)c1ccc(N=C(OCc2cccc(Oc3ccccc3)c2)C(Cl)Cl)cc1", "note": "[Compound 140]", "values": [{"measurement": "LC50 TBW E", "setting": "[1]", "value": "> 0.1", "unit": "%"}, {"measurement": "LC50 TBW C", "setting": "[2]", "value": "> 0.1", "unit": "%"}, {"measurement": "LC50 HF", "setting": "[3]", "value": "> 100", "unit": "µg"}, {"measurement": "LC50 CL", "setting": "[4]", "value": "< 0.1", "unit": "%"}]}, {"compound": "Fc1ccc(N=C(OCc2cccc(Oc3ccccc3)c2)C(Cl)Cl)cc1", "note": "[Compound 44]", "values": [{"measurement": "LC50 TBW E", "setting": "[1]", "value": 0.06, "unit": "%"}, {"measurement": "LC50 TBW C", "setting": "[2]", "value": "< 0.1", "unit": "%"}, {"measurement": "LC50 HF", "setting": "[3]", "value": 3, "unit": "µg"}]}]}
